Assay results: article PMC12028158, “Synthesis and In Vitro Evaluation of the Anticancer Effect of Novel Phosphonium Vindoline Derivatives” (International Journal of Molecular Sciences, 2025)

What was measured:
Type in all cases: cell-based
K-562 [1] = assay: NCI60 five-dose screen; settings: Homo sapiens, K562
SR = assay: NCI60 five-dose screen; settings: Homo sapiens
NCI-H322M = assay: NCI60 five-dose screen; settings: Homo sapiens
NCI-H522 [2] = assay: NCI60 five-dose screen; settings: Homo sapiens, NCI-H522
HCT-116 = assay: NCI60 five-dose screen; settings: Homo sapiens, HCT-116
SF-268 = assay: NCI60 five-dose screen; settings: Homo sapiens, SF-268
SF-295 = assay: NCI60 five-dose screen; settings: Homo sapiens, SF-295
U251 = assay: NCI60 five-dose screen; settings: Homo sapiens, U-251
M14 = assay: NCI60 five-dose screen; settings: Homo sapiens, M14
MDA-MB-435 = assay: NCI60 five-dose screen; settings: Homo sapiens, MDA-MB-435
IGROV1 = assay: NCI60 five-dose screen; settings: Homo sapiens, IGROV-1
NCI/ADR-RES = assay: NCI60 five-dose screen; settings: Homo sapiens
SK-OV-3 [3] = assay: NCI60 five-dose screen; settings: Homo sapiens, SK-OV-3
ACHN = assay: NCI60 five-dose screen; settings: Homo sapiens
SN12C = assay: NCI60 five-dose screen; settings: Homo sapiens
TK-10 [4] = assay: NCI60 five-dose screen; settings: Homo sapiens, TK-10
PC-3 = assay: NCI60 five-dose screen; settings: Homo sapiens, PC-3
[5] = tested on: Non-small Cell Lung Cancer panel; assay: NCI60 five-dose screen, panel mean; settings: Homo sapiens, read-out: Mean GI50
Colon Cancer panel = assay: NCI60 five-dose screen, panel mean; settings: Homo sapiens, read-out: Mean GI50
Melanoma panel = assay: NCI60 five-dose screen, panel mean; settings: Homo sapiens, read-out: Mean GI50
Prostate Cancer panel = assay: NCI60 five-dose screen, panel mean; settings: Homo sapiens, read-out: Mean GI50
[6] = tested on: 60 human tumor cell lines (NCI60); assay: NCI60 five-dose screen, overall mean; settings: 60 cell, read-out: Mean GI50, mean over all 60 cell lines
CCRF-CEM = assay: NCI60 one-dose screen; settings: Homo sapiens, read-out: Growth percent
K-562 [7] = assay: NCI60 one-dose screen; settings: Homo sapiens, K562, read-out: Growth percent
A549/ATCC = assay: NCI60 one-dose screen; settings: Homo sapiens, A549, read-out: Growth percent
NCI-H522 [8] = assay: NCI60 one-dose screen; settings: Homo sapiens, NCI-H522, read-out: Growth percent
HCC-2998 = assay: NCI60 one-dose screen; settings: Homo sapiens, HCC 2998, read-out: Growth percent
KM12 = assay: NCI60 one-dose screen; settings: Homo sapiens, KM12, read-out: Growth percent
SW-620 = assay: NCI60 one-dose screen; settings: Homo sapiens, SW-620, read-out: Growth percent
SF-539 = assay: NCI60 one-dose screen; settings: Homo sapiens, SF-539, read-out: Growth percent
SNB-75 = assay: NCI60 one-dose screen; settings: Homo sapiens, SNB-75, read-out: Growth percent
UACC-257 = assay: NCI60 one-dose screen; settings: Homo sapiens, UACC-257, read-out: Growth percent
OVCAR-4 = assay: NCI60 one-dose screen; settings: Homo sapiens, OVCAR-4, read-out: Growth percent
SK-OV-3 [9] = assay: NCI60 one-dose screen; settings: Homo sapiens, SK-OV-3, read-out: Growth percent
TK-10 [10] = assay: NCI60 one-dose screen; settings: Homo sapiens, TK-10, read-out: Growth percent

| SMILES | GI50 (K-562 [1]) [µM] | GI50 (SR) [µM] | GI50 (NCI-H322M) [µM] | GI50 (NCI-H522 [2]) [µM] | GI50 (HCT-116) [µM] | GI50 (SF-268) [µM] | GI50 (SF-295) [µM] | GI50 (U251) [µM] | GI50 (M14) [µM] | GI50 (MDA-MB-435) [µM] | GI50 (IGROV1) [µM] | GI50 (NCI/ADR-RES) [µM] | GI50 (SK-OV-3 [3]) [µM] | GI50 (ACHN) [µM] | GI50 (SN12C) [µM] | GI50 (TK-10 [4]) [µM] | GI50 (PC-3) [µM] | GI50 [5] [µM] | GI50 (Colon Cancer panel) [µM] | GI50 (Melanoma panel) [µM] | other results |
| --- | --- | --- | --- | --- | --- | --- | --- | --- | --- | --- | --- | --- | --- | --- | --- | --- | --- | --- | --- | --- | --- |
| CC[C@]12C=CCN3CC[C@@]4(c5ccc(OC)cc5N(C)[C@H]4[C@@](O)(C(=O)OC)[C@@H]1OC(=O)CCC[P+](C1CCCCC1)(C1CCCCC1)C1CCCCC1)[C@@H]32 [9d] | 1.32 | 1.35 | 5.79 | 6.88 | 2.85 | 3.23 | 4.41 | 0.746 | 1.92 | 1.83 | 1.39 | 35.6 | 2.59 | 15.2 | 2.89 | 2.73 | 1.71 | 3.67 | 3.82 | 1.7 | GI50 (Prostate Cancer panel): 2.73 µM; GI50 [6]: 3.8 µM; activity at 10 µM (CCRF-CEM): -40.9%; activity at 10 µM (K-562 [7]): 3.31%; activity at 10 µM (A549/ATCC): 14.1%; activity at 10 µM (NCI-H522 [8]): -82.2%; activity at 10 µM (HCC-2998): -92.6%; activity at 10 µM (KM12): -63.4%; activity at 10 µM (SW-620): 3.91%; activity at 10 µM (SF-539): -86.5%; activity at 10 µM (SNB-75): -61.4%; activity at 10 µM (UACC-257): -80.9%; activity at 10 µM (OVCAR-4): 17.7%; activity at 10 µM (SK-OV-3 [9]): -7.72%; activity at 10 µM (TK-10 [10]): -48.6% |
| CC[C@]12C=CCN3CC[C@@]4(c5ccc(OC)cc5N(C)[C@H]4[C@@](O)(C(=O)OC)[C@@H]1OC(=O)CCC[P+](c1ccc(F)cc1)(c1ccc(F)cc1)c1ccc(F)cc1)[C@@H]32 [9c] | 9.83 | 7.45 | > 48.5 | 3.88 | 14.8 | 15 | > 48.5 | 9.36 | 9.1 | 8.14 | 7.09 | > 48.5 | 15.8 | > 48.5 | 14.8 | 22.2 | 12.6 | 19.6 | 16.8 | 8.13 | GI50 (Prostate Cancer panel): 18.2 µM; GI50 [6]: 17 µM; activity at 10 µM (CCRF-CEM): 20%; activity at 10 µM (K-562 [7]): 21.6%; activity at 10 µM (A549/ATCC): 54.5%; activity at 10 µM (NCI-H522 [8]): -17.7%; activity at 10 µM (HCC-2998): 22.4%; activity at 10 µM (KM12): 21.3%; activity at 10 µM (SW-620): 45.3%; activity at 10 µM (SF-539): 24.2%; activity at 10 µM (SNB-75): 39.9%; activity at 10 µM (UACC-257): -34.3%; activity at 10 µM (OVCAR-4): 48.6%; activity at 10 µM (SK-OV-3 [9]): 54.7%; activity at 10 µM (TK-10 [10]): 63.9% |
